Tested on: Glyphosate-sensitive Palmer amaranth (A. palmeri R-22) plants
Assay: Topical ssDNA HPPD oligonucleotide mixture with or without mesotrione or atrazine: plant height / growth reduction
Assay type: in vivo, Amaranthus palmeri
Conditions: twelve days after treatment
Protocol: Glyphosate-sensitive Palmer amaranth (A. palmeri R-22) plants were grown in the greenhouse (30/20 C day/night T; 14 hour photoperiod) in 4 inch square pots containing Sun Gro® Redi-Earth and 3.5 kg/cubic meter Osmocote® 14-14-14 fertilizer. Palmer amaranth plants at 5 to 10 cm in height were pre-treated with a mixture of eight 8 short (21-22mer) single-strand antisense oligo DNA polynucleotides (ssDNAas) targeting HPPD shown in Table 2 as HPPD_OLIGO1-8 (SEQ ID NO: 1083-1090, respectively) at two concentrations, 16 nmol and 80 nmol, formulated in 10 millimolar sodium phosphate buffer (pH 6.8) containing 2% ammonium sulfate and 0.5% Silwet L-77. Plants were treated manually by pipetting 10 μL of polynucleotide solution on four fully expanded mature leaves, for a total of 40 microliters of solution per plant. Twenty-four and forty-eight hours later, the plants were treated with mesotrione (Callisto®, 4 lb ai per gallon; HPPD inhibitor) at 13 g ai/ha, or atrazine (Aatrex® Nine-0®, 90% w/w ai; Photosystem II inhibitor) at 170 g ai/ha using a track-sprayer equipped with a 9501E nozzle and calibrated to deliver 93 liters of solution per hectare. […] Plant height was determined just before ssDNA treatment and at intervals upto twelve days after herbicide treatments to determine effect of the oligonucleotide and herbicide treatments.

| Compound | control (growth reduction) (atrazine alone 170 g ai/ha) | control (growth reduction) (mesotrione alone 13 g ai/ha) |
| --- | --- | --- |
| CCNc1nc(Cl)nc(NC(C)C)n1 [atrazine] | 29% | – |
| CS(=O)(=O)c1ccc(C(=O)C2C(=O)CCCC2=O)c([N+](=O)[O-])c1 [mesotrione] | – | 48% |
